Measurements: ChEMBL document CHEMBL2396561 (J Med Chem, 2013)
In brackets after ≈: the same amount, converted by molar mass.

Tests used:
[1] = molecular target: T1, Enoyl-[acyl-carrier-protein] reductase [NADH] (Francisella tularensis subsp. tularensis (strain SCHU S4 / Schu 4), UniProt Q5NGQ3)
T1 sequence (Q5NGQ3 whole entry): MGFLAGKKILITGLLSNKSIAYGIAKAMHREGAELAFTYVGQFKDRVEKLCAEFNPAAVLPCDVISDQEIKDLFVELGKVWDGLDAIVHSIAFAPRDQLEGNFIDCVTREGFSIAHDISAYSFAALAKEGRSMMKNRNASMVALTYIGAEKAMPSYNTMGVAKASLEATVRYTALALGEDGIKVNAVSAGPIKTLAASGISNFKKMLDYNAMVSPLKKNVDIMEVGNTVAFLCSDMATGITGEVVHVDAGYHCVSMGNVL

Bacillus anthracis = test: Antibacterial activity against Bacillus anthracis Ames expressing FabI assessed as growth inhibition after 18 to 24 hrs by microdilution method; type: functional
Pseudomonas aeruginosa = test: Antibacterial activity against Pseudomonas aeruginosa ATCC 27853 expressing FabI, FabV, FabK assessed as growth inhibition after 18 to 24 hrs by microdilution method; type: functional
[2] = Cytotoxicity against human 786-O cells assessed as cell survival after 72 hrs by CellTiter-96 aqueous one solution assay; type: cell-based, 786-0; conditions: read-out: LC50
Escherichia coli = test: Antibacterial activity against Escherichia coli ATCC 25922 expressing FabI assessed as growth inhibition after 18 to 24 hrs by microdilution method; type: functional
[3] = tested on: Francisella tularensis subsp. tularensis SCHU S4; test: Antibacterial activity against Francisella tularensis SCHU S4 expressing FabI assessed as growth inhibition after 42 to 48 hrs by microdilution method; type: functional
[4] = molecular target: T1, Enoyl-[acyl-carrier-protein] reductase [NADH]; remark: listed apart in the source
Staphylococcus aureus = test: Antibacterial activity against Staphylococcus aureus ATCC 29213 expressing FabI assessed as growth inhibition after 18 to 24 hrs by microdilution method; type: functional
[5] = Cytotoxicity against mouse Neuro2a cells assessed as cell survival after 72 hrs by CellTiter-96 aqueous one solution assay; type: cell-based, N2a; conditions: read-out: LC50
[6] = molecular target: T1, Enoyl-[acyl-carrier-protein] reductase [NADH]; remark: listed apart in the source
[7] = Solubility of the compound in DMSO at 125 uM; type: physicochemical

SMILES | MIC (Bacillus anthracis) | MIC (Pseudomonas aeruginosa) | CC50 at 72 h [2] | MIC (Escherichia coli) | MIC [3] | IC50 [4] | MIC (Staphylococcus aureus) | CC50 at 72 h [5] | IC50 [6] | further results
O=C(CC1CCCCC1)N1CCC(c2nc(-c3ccc(S(=O)(=O)N4CCCC4)cc3)no2)CC1 | > 26 µg/mL | > 52 µg/mL | 7 µM | > 52 µg/mL | > 52 µg/mL | 8 µM | > 52 µg/mL | 8 µM | – | Ki [1]: 7 µM
O=C(C(=O)N1CC=C(c2ccccc2)CC1)c1c[nH]c2ccccc12 | > 208 µg/mL | > 413 µg/mL | 63 µM | > 413 µg/mL | 39 µM | 3 µM | > 413 µg/mL | 70 µM | 12 µM | –
O=C(COc1ccccc1)NCCSc1c[nH]c2ccccc12 | 43 µg/mL (≈ 132 µM) | > 343 µg/mL | 30 µM | > 343 µg/mL | 67 µM | 20 µM | 86 µg/mL (≈ 263 µM) | 30 µM | – | Ki [1]: 3.4 µM; solubility [7]: soluble
CN(Cc1ccccc1N)C(=O)c1cc2ccccc2o1 | – | – | – | – | – | – | – | – | 45 µM | –
N#Cc1ccc(Oc2ccccc2O)c(F)c1 | – | – | – | – | – | – | – | – | 11 µM | –
NC(=O)c1ccc(Oc2ccccc2O)c(F)c1 | – | – | – | – | – | – | – | – | 6 µM | –
CN(Cc1ccc(C(C)(C)C)cc1)Cc1cccc2ccccc12 [BUTENAFINE] | – | – | – | – | – | – | – | – | 76 µM | –
O=C(O)c1cn(C2CC2)c2cc(N3CCNCC3)c(F)cc2c1=O [CIPROFLOXACIN] | 0.0312 µg/mL (≈ 0.0943 µM) | 1 µg/mL (≈ 3.02 µM) | – | 0.0312 µg/mL (≈ 0.0943 µM) | 0.125 µg/mL | – | 2 µg/mL (≈ 6.04 µM) | – | – | –
Nc1ccn([C@@H]2O[C@H](CO)[C@@H](O)[C@@H]2O)c(=O)n1 [CYTARABINE] | – | – | – | – | – | – | – | – | 59 µM | –
O=c1oc2ccccc2c(O)c1Cc1c(O)c2ccccc2oc1=O [DICUMAROL] | – | – | – | – | – | – | – | – | 47 µM | –
CCc1ccc(CCOc2ccc(CC3SC(=O)NC3=O)cc2)nc1 (stereo not drawn) [PIOGLITAZONE] | – | – | – | – | – | – | – | – | 79 µM | –
Oc1cc(Cl)ccc1Oc1ccc(Cl)cc1Cl [TRICLOSAN] | – | – | 4.2 µM | – | – | 1.3 µM | – | 5.4 µM | – | –
